Experimental data from ChEMBL document CHEMBL1150477, “Development of angiotensin II antagonists with equipotent affinity for human AT1 and AT2 receptor subtypes” (Bioorg Med Chem Lett, 1994).
Substitutions are numbered along the chain they refer to.

What was measured:
[1] = target: T1, Type-1 angiotensin II receptor (Homo sapiens, UniProt P30556); assay: […] inhibitory concentration against Angiotensin II receptor, type 1 of human adrenal membrane
T1 sequence (P30556 whole entry): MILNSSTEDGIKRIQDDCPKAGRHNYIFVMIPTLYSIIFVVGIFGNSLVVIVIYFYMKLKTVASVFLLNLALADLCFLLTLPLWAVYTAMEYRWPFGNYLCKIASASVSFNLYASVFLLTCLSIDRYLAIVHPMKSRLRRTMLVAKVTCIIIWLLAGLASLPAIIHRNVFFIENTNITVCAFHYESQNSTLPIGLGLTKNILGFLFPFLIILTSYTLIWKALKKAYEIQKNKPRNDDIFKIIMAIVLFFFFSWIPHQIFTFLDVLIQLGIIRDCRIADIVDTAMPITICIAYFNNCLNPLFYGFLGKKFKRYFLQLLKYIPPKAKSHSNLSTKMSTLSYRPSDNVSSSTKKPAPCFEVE

[2] = species on record: Oryctolagus cuniculus; assay: Ratio of inhibitory concentration against AT2 receptor of rat midbrain to AT1 receptor of rabbit aorta
[3] = target: T2, Type-2 angiotensin II receptor (Rattus norvegicus, UniProt P35351); assay: […] inhibitory concentration against Angiotensin II, type 2 of rat midbrain membrane
T2 sequence (P35351 whole entry): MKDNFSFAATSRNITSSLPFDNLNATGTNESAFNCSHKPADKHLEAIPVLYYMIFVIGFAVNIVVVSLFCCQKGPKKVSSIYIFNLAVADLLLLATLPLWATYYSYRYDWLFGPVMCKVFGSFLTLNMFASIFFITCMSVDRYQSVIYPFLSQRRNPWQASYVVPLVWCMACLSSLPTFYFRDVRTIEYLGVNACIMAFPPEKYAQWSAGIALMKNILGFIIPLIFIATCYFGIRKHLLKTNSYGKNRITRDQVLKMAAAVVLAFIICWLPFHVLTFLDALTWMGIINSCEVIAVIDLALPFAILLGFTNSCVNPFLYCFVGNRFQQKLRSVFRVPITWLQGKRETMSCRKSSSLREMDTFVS

[4] = target: T2, Type-2 angiotensin II receptor; assay: […] inhibitory concentration against AT2 receptor of rat adrenal membrane
[5] = target: Angiotensin II receptor (Rattus norvegicus) (UniProt P29089+P25095+P35351); assay: Ratio of inhibitory concentration against AT2 receptor and AT1 receptor of rat adrenal membrane
[6] = target: T3, Angiotensin II receptor (AT-1) type-1 (Rattus norvegicus, UniProt P29089+P25095); assay: […] inhibitory concentration against Angiotensin II receptor, type 1 of rat adrenal membrane
T3 sequence (P29089 whole entry): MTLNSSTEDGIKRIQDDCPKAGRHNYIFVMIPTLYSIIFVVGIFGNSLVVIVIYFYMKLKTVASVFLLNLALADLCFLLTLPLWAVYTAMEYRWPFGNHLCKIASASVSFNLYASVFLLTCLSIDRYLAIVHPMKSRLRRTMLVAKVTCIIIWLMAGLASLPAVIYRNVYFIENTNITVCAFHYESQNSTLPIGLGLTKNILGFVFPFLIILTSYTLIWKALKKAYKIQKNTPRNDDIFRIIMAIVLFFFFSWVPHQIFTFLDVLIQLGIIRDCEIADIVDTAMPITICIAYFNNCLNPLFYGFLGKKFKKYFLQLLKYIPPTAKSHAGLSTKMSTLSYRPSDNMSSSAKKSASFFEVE
T3 sequence (P25095 whole entry): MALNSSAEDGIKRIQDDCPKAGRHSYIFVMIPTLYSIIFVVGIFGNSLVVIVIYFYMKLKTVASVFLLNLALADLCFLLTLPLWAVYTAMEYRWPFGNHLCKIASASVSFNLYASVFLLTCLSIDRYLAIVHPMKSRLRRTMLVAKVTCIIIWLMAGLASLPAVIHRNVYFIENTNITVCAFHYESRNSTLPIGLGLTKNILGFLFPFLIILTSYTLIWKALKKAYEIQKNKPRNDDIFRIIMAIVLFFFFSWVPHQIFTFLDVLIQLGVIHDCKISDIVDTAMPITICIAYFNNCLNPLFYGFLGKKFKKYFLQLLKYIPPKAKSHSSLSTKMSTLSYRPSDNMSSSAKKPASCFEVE

[7] = target: T4, Type-2 angiotensin II receptor (Homo sapiens, UniProt P50052); assay: […] inhibitory concentration against AT2 receptor of human adrenal membrane
T4 sequence (P50052 whole entry): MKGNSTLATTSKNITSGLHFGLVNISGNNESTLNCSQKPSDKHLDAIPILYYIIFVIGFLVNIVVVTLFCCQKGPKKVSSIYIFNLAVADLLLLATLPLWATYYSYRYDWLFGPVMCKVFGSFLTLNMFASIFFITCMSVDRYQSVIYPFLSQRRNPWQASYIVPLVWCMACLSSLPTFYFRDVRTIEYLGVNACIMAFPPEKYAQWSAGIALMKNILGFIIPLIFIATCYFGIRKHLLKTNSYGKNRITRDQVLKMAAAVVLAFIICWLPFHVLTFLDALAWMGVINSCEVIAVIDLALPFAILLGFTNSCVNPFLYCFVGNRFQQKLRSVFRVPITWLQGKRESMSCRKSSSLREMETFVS

[8] = target: Angiotensin II receptor (Homo sapiens) (UniProt P30556+P50052); assay: Ratio of inhibitory concentration against AT2 receptor and AT1 receptor of human adrenal membrane
[9] = target: T5, Type-1 angiotensin II receptor (Oryctolagus cuniculus, UniProt P34976); assay: […] inhibitory concentration against Angiotensin II receptor, type 1 of rabbit aorta membrane
T5 sequence (P34976 whole entry): T1 sequence (P30556 whole entry) with I2M, V49A, I254V, I270V, R272H, R311K, T349S, A353V

| SMILES | IC50 [1] [nM] | Ratio [2] | IC50 [3] [nM] | IC50 [4] [nM] | Ratio [5] | IC50 [6] [nM] | IC50 [7] [nM] | Ratio [8] | IC50 [9] [nM] |
| --- | --- | --- | --- | --- | --- | --- | --- | --- | --- |
| CCc1ccc(C(=O)NS(=O)(=O)c2ccccc2-c2ccc(Cn3c(CC)nc4ccc(NC(=O)NC(C)C)cc4c3=O)c(F)c2)c(F)c1 | 1.6 | 1.3 | 0.25 | 0.34 | 2.5 | 0.14 | 3.1 | 2 | 0.19 |
| CCc1ccc(C(=O)NS(=O)(=O)c2ccccc2-c2ccc(Cn3c(CC)nc4ccc(NC(=O)N(C)C(C)C)cc4c3=O)c(F)c2)cc1 | 5.8 | 1.6 | 0.25 | 0.93 | 2.5 | 0.14 | 8.9 | 1.6 | 0.54 |
| CCCc1nc2ccc(NC(=O)N3CCOCC3)cc2c(=O)n1Cc1ccc(-c2ccccc2S(=O)(=O)NC(=O)OCCC(C)C)cc1F | 0.71 | 2.3 | 0.48 | 0.5 | 4.3 | 0.13 | 3.3 | 4.7 | 0.24 |
| CCc1nc2ccc(NC(=O)c3ccccn3)cc2c(=O)n1Cc1ccc(-c2ccccc2S(=O)(=O)NC(=O)OCCC(C)C)cc1F | 85 | 0.79 | 1.8 | 0.63 | 2.5 | 1.3 | 37 | 0.47 | 2.3 |
| CCCCc1nc2ccc(NC(=O)N(C)C(C)C)cc2c(=O)n1Cc1ccc(-c2ccccc2S(=O)(=O)NC(=O)OCCC(C)C)cc1F | 1.9 | 1.3 | 0.21 | 0.22 | 1.5 | 0.14 | 8 | 4.4 | 0.23 |
| CCCCOC(=O)NS(=O)(=O)c1ccccc1-c1ccc(Cn2c(CCCC)nc3ccc(NC(=O)N(C)C(C)C)cc3c2=O)cc1 |  |  | 2.4 |  |  |  | 60 |  | 0.24 |
| CCCc1nc2ccc(NC(=O)NC(C)C)cc2c(=O)n1Cc1ccc(-c2ccccc2S(=O)(=O)NC(=O)COCC(C)C)cc1F | 1.5 | 1.7 | 1 | 0.38 | 2.1 | 0.17 | 3.5 | 2.3 | 0.52 |
| CCCc1nc2ccc(NC(=O)NC(C)C)cc2c(=O)n1Cc1ccc(-c2ccccc2S(=O)(=O)NC(=O)c2ccc(CC)cc2F)cc1F | 0.84 | 1.4 | 0.28 | 0.21 | 2.3 | 0.11 | 4.4 | 5.3 | 0.2 |
| CCCCCN(C(=O)c1ccccc1)c1ccc2nc(CCC)n(Cc3ccc(-c4ccccc4-c4nn[nH]n4)cc3)c(=O)c2c1 |  |  |  |  |  |  | 7 |  | 1.5 |
| Cc1nc2ccc(NC(=O)NC(C)C)cc2c(=O)n1Cc1ccc(-c2ccccc2S(=O)(=O)NC(=O)OCCC(C)C)cc1F | 15 | 0.59 | 0.7 | 0.63 | 1.2 | 0.5 | 11 | 0.93 | 1.2 |
| CCCCOC(=O)NS(=O)(=O)c1ccccc1-c1ccc(Cn2c(CCCC)nc3ccc(NC(=O)N(C)C(C)C)cc3c2=O)c(F)c1 | 0.89 | 2.7 | 0.44 | 0.77 | 3.2 | 0.25 | 7.7 | 8.7 | 0.19 |
| Cc1nc2ccc(NC(=O)N(C)C(C)C)cc2c(=O)n1Cc1ccc(-c2ccccc2S(=O)(=O)NC(=O)OCCC(C)C)cc1F | 26.5 | 0.45 | 1.05 | 0.72 | 1.24 | 0.58 | 12.5 | 0.47 | 2.3 |

Other lines, results leading:

| IC50 [1] [nM] | Ratio [2] | IC50 [3] [nM] | IC50 [4] [nM] | Ratio [5] | IC50 [6] [nM] | IC50 [7] [nM] | Ratio [8] | IC50 [9] [nM] | SMILES |
| --- | --- | --- | --- | --- | --- | --- | --- | --- | --- |
| 18 | 0.16 | 0.31 | 0.95 | 1.5 | 0.66 | 65 |  | 2 | CCc1nc2ccc(NC(=O)N3CCOCC3)cc2c(=O)n1Cc1ccc(-c2ccccc2S(=O)(=O)NC(=O)OCCC(C)C)cc1F |
| 59 | 0.46 | 1.6 | 4.5 | 1.4 | 3.9 | 65 | 1.1 | 4 | CCNC(=O)Nc1ccc2nc(CC)n(Cc3ccc(-c4ccccc4S(=O)(=O)NC(=O)c4ccccc4F)cc3F)c(=O)c2c1 |
| 1.2 | 2.5 | 0.29 | 0.36 | 1.5 | 0.23 | 7.8 | 7.6 | 0.13 | CCCCc1nc2ccc(NC(=O)N(C)C(C)C)cc2c(=O)n1Cc1ccc(-c2ccccc2S(=O)(=O)NC(=O)OCCC2CC2)cc1F |
| 7.2 | 0.61 | 0.56 | 0.8 | 0.92 | 0.64 | 6.5 | 0.9 | 0.92 | CCc1nc2ccc(NC(=O)NC(C)C)cc2c(=O)n1Cc1ccc(-c2ccccc2S(=O)(=O)NC(=O)OCCC2CC2)cc1F |
| 12 | 3.3 | 6.6 | 2.4 | 1.2 | 2.3 | 12 | 0.96 | 2.3 | Cc1nc2ccc(NC(=O)N(C)C)cc2c(=O)n1Cc1ccc(-c2ccccc2S(=O)(=O)NC(=O)OCCC2CC2)cc1F |
| 12 | 0.97 | 0.56 | 0.8 | 0.92 | 0.64 | 9.8 | 0.77 | 0.73 | CCNC(=O)Nc1ccc2nc(CC)n(Cc3ccc(-c4ccccc4S(=O)(=O)NC(=O)OCCC4CC4)cc3F)c(=O)c2c1 |
| 33 | 0.38 | 1.3 | 2.5 | 2.2 | 1.3 | 32 | 1 | 3.8 | CCCCOC(=O)NS(=O)(=O)c1ccccc1-c1ccc(Cn2c(CC)nc3ccc(NC(=O)N4CCOCC4)cc3c2=O)c(F)c1 |
